Test results published in patent publication US4342752A, “Carbalkoxymethyl derivatives of rutin poly(H-)sulfate and method of use” (American Cyanamid Company, priority 1981, dated 1982).
Values joined by “and” are separate entries in the source; they are usually repeats but may differ in a detail not shown here. Equal entries are not always repeated. Structures can show the parent of a compound that is named as a salt. Where two headings read alike, the source gives them in different places.

Legend:
[1] = biological target: T1, activated human C1 (Homo sapiens, UniProt P09871); experiment: Test Code 026 (C1 inhibitor); assay type: biochemical; details: twofold serial dilutions; higher well number indicates higher activity
T1 sequence (P09871 438-688 limits assumed): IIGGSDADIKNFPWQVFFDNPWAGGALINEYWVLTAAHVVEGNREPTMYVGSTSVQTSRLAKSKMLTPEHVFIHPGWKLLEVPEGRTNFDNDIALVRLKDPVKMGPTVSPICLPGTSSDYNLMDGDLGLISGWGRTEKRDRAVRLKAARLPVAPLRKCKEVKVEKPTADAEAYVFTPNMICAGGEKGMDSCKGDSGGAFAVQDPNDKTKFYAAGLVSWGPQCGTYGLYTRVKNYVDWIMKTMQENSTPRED
T1 sequence (P09871 16-437 limits assumed): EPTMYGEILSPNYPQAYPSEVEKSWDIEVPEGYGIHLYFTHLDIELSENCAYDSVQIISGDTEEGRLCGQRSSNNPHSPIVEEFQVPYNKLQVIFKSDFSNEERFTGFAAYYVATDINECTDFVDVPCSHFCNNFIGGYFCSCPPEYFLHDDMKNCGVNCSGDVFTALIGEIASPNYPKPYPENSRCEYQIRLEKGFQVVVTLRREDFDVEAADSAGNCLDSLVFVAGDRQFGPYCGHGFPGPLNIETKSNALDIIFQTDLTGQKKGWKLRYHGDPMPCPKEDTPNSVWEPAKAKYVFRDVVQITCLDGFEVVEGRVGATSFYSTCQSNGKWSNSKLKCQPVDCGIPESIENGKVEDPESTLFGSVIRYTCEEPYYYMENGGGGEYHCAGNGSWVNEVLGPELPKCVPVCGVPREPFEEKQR
Method: (§1) An active inhibitor protects C2 from C1 and C4; (ii) Cap 50 Test--Here, appropriate amounts of the test compound are added to a pool of guinea pig serum in vitro, after which the undiluted serum capillary tube assay referred to above is run. The concentration of compound inhibiting 50% is reported; and (iii) Guinea Pig Intraperitoneal Test (GPIP)--Guinea pigs weighing about 300 g. are dosed intraperitoneally (i.p.) with 200 mg./kg. of the test compound dissolved in saline and adjusted to pH 7-8. Approximately 0.4 ml. blood samples, taken by orbital sinus puncture 30 minutes and one hour after injections, are collected directly into centrifuge tubes; 5 ml. blood samples, taken by decapitation 2 hours after injection are collected directly into beakers. The samples are allowed to clot, centrifuged, and the resultant sera are assayed for complement activity using the capillary complement assay. Percent inhibition are calculated by comparison with simultaneous controls.

[2] = system: complement activity of sera; experiment: Guinea Pig Intraperitoneal Test (GPIP); details: Cavia porcellus, ip, 200 mg./kg. i.p., read-out: In Vivo Activity (Guinea Pig) Intraperitoneal % Inhibition
Method: as §1, with “[…],” for “taken by orbital sinus puncture 30 minutes and one hour after injections,”, “taken by decapitation 2 hours after injection are collected directly into” left out

In vitro Activity 026 (activity in wells, serial dilution assay) [1]: 12 wells and 10 wells
Compound: CCOC(=O)COc1cc(OS(=O)(=O)O)c2c(=O)c(O[C@@H]3O[C@H](CO[C@@H]4O[C@@H](C)[C@H](OS(=O)(=O)O)[C@@H](OS(=O)(=O)O)[C@H]4OS(=O)(=O)O)[C@@H](OS(=O)(=O)O)[C@H](OS(=O)(=O)O)[C@H]3OS(=O)(=O)O)c(-c3ccc(OS(=O)(=O)O)c(OS(=O)(=O)O)c3)oc2c1 [7-O-Carbethoxymethyl-rutin nona(H-sulfate)sodium salt]
inhibition at 200 mg/kg ([2]; Time 2 hours): 39%
inhibition at 200 mg/kg ([2]; Time 6 hours): 43%
inhibition at 200 mg/kg ([2]; Time 24 hours): 55%
